Assay results published in patent US20260250257A1, “ANTIBACTERIAL AND SYNERGISTIC ACTIVE COMPOUND AND USE THEREOF” (EAST CHINA UNIVERSITY OF SCIENCE AND TECHNOLOGY, priority 2023, published 2026).
Converted amounts (≈) assume the structure as drawn.

Experiments:
Type in all cases: cell-based
[1] = test system: ATCC13883 strain (Klebsiella pneumoniae); assay: Checkerboard antibacterial synergistic activity test with polymyxin E (FIC); parameters: key: FIC≤0.5 synergy; 0.5–1 additive; 1–2 indifferent; ≥2 antagonism; conditions: combined with polymyxin E
Method in brief: (§1)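 FIC values come from a microdilution checkerboard crossing polymyxin E against the test compound in MH medium, with uninoculated blanks included. Incubation lasts 16 h at 37° C. Scoring: synergy at FIC ≤0.5, additivity between 0.5 and 1, indifference between 1 and 2, antagonism at 2 or above.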

[2] = test system: ATCC19606 strain (Acinetobacter baumannii); assay: as above; parameters: key: FIC≤0.5 synergy; 0.5–1 additive; 1–2 indifferent; ≥2 antagonism; conditions: combined with polymyxin E
Method in brief: as §1

[3] = test system: ATCC25922 strain (Escherichia coli); assay: as above; parameters: key: FIC≤0.5 synergy; 0.5–1 additive; 1–2 indifferent; ≥2 antagonism; conditions: combined with polymyxin E
Method in brief: as §1

[4] = test system: ATCC9027 strain (Pseudomonas aeruginosa); assay: as above; parameters: key: FIC≤0.5 synergy; 0.5–1 additive; 1–2 indifferent; ≥2 antagonism; conditions: combined with polymyxin E
Method in brief: as §1

[5] = test system: ATCC13883 strain (Klebsiella pneumoniae); assay: Broth microdilution, antibacterial activity of the compound used alone; conditions: for MIC: read-out: Antibacterial activity of the compound of Formula I, ATCC13883
Source text: (§2) The broth microdilution method was used to test the antibacterial effects of the compounds of the present invention against various Gram-negative bacterial strains when used alone.

[6] = test system: ATCC19606 strain (Acinetobacter baumannii); assay: as above; conditions: for MIC: read-out: Antibacterial activity of the compound of Formula I, ATCC19606
Source text: as §2

[7] = test system: ATCC25922 strain (Escherichia coli); assay: as above; conditions: for MIC: read-out: Antibacterial activity of the compound of Formula I, ATCC25922
Source text: as §2

[8] = test system: ATCC9027 strain (Pseudomonas aeruginosa); assay: as above; conditions: for MIC: read-out: Antibacterial activity of the compound of Formula I, ATCC9027
Source text: as §2

## Cn1ccc2cccc(-c3c[se]c(N=C(N)N)n3)c21 [Compound I-72]
[1]
  Synergistic activity (FIC value) ATCC13883: 0.31
[2]
  Synergistic activity (FIC value) ATCC19606: 0.25
[3]
  Synergistic activity (FIC value) ATCC25922: 0.56
[4]
  Synergistic activity (FIC value) ATCC9027: 0.5
[5]
  Antibacterial activity of the compound of Formula I, ATCC13883: 256 µg/mL
[6]
  Antibacterial activity of the compound of Formula I, ATCC19606: 256 µg/mL
[7]
  Antibacterial activity of the compound of Formula I, ATCC25922: 256 µg/mL
[8]
  Antibacterial activity of the compound of Formula I, ATCC9027: 256 µg/mL

## NC(N)=Nc1nc(-c2ccccc2-c2ccccc2)co1 [Compound I-73]
[1]
  Synergistic activity (FIC value) ATCC13883: 1.25
[2]
  Synergistic activity (FIC value) ATCC19606: 0.25
[3]
  Synergistic activity (FIC value) ATCC25922: 1.25
[4]
  Synergistic activity (FIC value) ATCC9027: 0.52
[5]
  Antibacterial activity of the compound of Formula I, ATCC13883: 256 µg/mL
[6]
  Antibacterial activity of the compound of Formula I, ATCC19606: 256 µg/mL
[7]
  Antibacterial activity of the compound of Formula I, ATCC25922: 256 µg/mL
[8]
  Antibacterial activity of the compound of Formula I, ATCC9027: 256 µg/mL

## NC(N)=Nc1nc(-c2cccc(-c3ccccc3)c2)cs1 [Compound I-74]
[1]
  Synergistic activity (FIC value) ATCC13883: 0.33
[2]
  Synergistic activity (FIC value) ATCC19606: 0.15
[3]
  Synergistic activity (FIC value) ATCC25922: 0.39
[4]
  Synergistic activity (FIC value) ATCC9027: 0.62
[5]
  MIC: 256 µg/mL (≈ 870 µM)
[6]
  MIC: 256 µg/mL (≈ 870 µM)
[7]
  MIC: 256 µg/mL (≈ 870 µM)
[8]
  MIC: 256 µg/mL (≈ 870 µM)

## CC(=O)Nc1cc(-c2csc(N=C(N)N)n2)ccc1-c1ccccc1 [Compound I-75]
[1]
  Synergistic activity (FIC value) ATCC13883: 0.31
[2]
  Synergistic activity (FIC value) ATCC19606: 0.12
[3]
  Synergistic activity (FIC value) ATCC25922: 0.38
[4]
  Synergistic activity (FIC value) ATCC9027: 0.31
[5]
  Antibacterial activity of the compound of Formula I, ATCC13883: 256 µg/mL
[6]
  Antibacterial activity of the compound of Formula I, ATCC19606: 256 µg/mL
[7]
  Antibacterial activity of the compound of Formula I, ATCC25922: 256 µg/mL
[8]
  Antibacterial activity of the compound of Formula I, ATCC9027: 256 µg/mL

## Cc1sc(N=C(N)N)nc1-c1cccc(S(C)(=O)=O)c1-c1ccccn1 [Compound I-76]
[1]
  Synergistic activity (FIC value) ATCC13883: 0.63
[2]
  Synergistic activity (FIC value) ATCC19606: 0.75
[3]
  Synergistic activity (FIC value) ATCC25922: 0.5
[4]
  Synergistic activity (FIC value) ATCC9027: 0.56
[5]
  Antibacterial activity of the compound of Formula I, ATCC13883: 256 µg/mL
[6]
  Antibacterial activity of the compound of Formula I, ATCC19606: 256 µg/mL
[7]
  Antibacterial activity of the compound of Formula I, ATCC25922: 256 µg/mL
[8]
  Antibacterial activity of the compound of Formula I, ATCC9027: 256 µg/mL

## CCc1sc(N=C(N)N)nc1-c1ccccc1-c1ccncn1 [Compound I-77]
[1]
  Synergistic activity (FIC value) ATCC13883: 0.52
[2]
  Synergistic activity (FIC value) ATCC19606: 0.52
[3]
  Synergistic activity (FIC value) ATCC25922: 0.63
[4]
  Synergistic activity (FIC value) ATCC9027: 1.25
[5]
  Antibacterial activity of the compound of Formula I, ATCC13883: 256 µg/mL
[6]
  Antibacterial activity of the compound of Formula I, ATCC19606: 256 µg/mL
[7]
  Antibacterial activity of the compound of Formula I, ATCC25922: 256 µg/mL
[8]
  Antibacterial activity of the compound of Formula I, ATCC9027: 256 µg/mL

## CN(C)c1ccc(-c2nc(N=C(N)N)[nH]c2Cl)c(-c2ccco2)c1 [Compound I-78]
[1]
  Synergistic activity (FIC value) ATCC13883: 0.38
[2]
  Synergistic activity (FIC value) ATCC19606: 0.75
[3]
  Synergistic activity (FIC value) ATCC25922: 0.5
[4]
  Synergistic activity (FIC value) ATCC9027: 0.63
[5]
  Antibacterial activity of the compound of Formula I, ATCC13883: 256 µg/mL
[6]
  Antibacterial activity of the compound of Formula I, ATCC19606: 256 µg/mL
[7]
  Antibacterial activity of the compound of Formula I, ATCC25922: 256 µg/mL
[8]
  Antibacterial activity of the compound of Formula I, ATCC9027: 128 µg/mL

## Cc1oc(N=C(N)N)nc1-c1cccc(C#N)c1-c1cccs1 [Compound I-79]
[1]
  Synergistic activity (FIC value) ATCC13883: 0.52
[2]
  Synergistic activity (FIC value) ATCC19606: 0.52
[3]
  Synergistic activity (FIC value) ATCC25922: 0.63
[4]
  Synergistic activity (FIC value) ATCC9027: 1.25
[5]
  Antibacterial activity of the compound of Formula I, ATCC13883: 256 µg/mL
[6]
  Antibacterial activity of the compound of Formula I, ATCC19606: 256 µg/mL
[7]
  Antibacterial activity of the compound of Formula I, ATCC25922: 256 µg/mL
[8]
  Antibacterial activity of the compound of Formula I, ATCC9027: 256 µg/mL

## NC(N)=Nc1nc(-c2c(F)cccc2-c2nccs2)cs1 [Compound I-80]
[1]
  Synergistic activity (FIC value) ATCC13883: 0.52
[2]
  Synergistic activity (FIC value) ATCC19606: 0.52
[3]
  Synergistic activity (FIC value) ATCC25922: 0.63
[4]
  Synergistic activity (FIC value) ATCC9027: 1.25
[5]
  Antibacterial activity of the compound of Formula I, ATCC13883: 256 µg/mL
[6]
  Antibacterial activity of the compound of Formula I, ATCC19606: 256 µg/mL
[7]
  Antibacterial activity of the compound of Formula I, ATCC25922: 256 µg/mL
[8]
  Antibacterial activity of the compound of Formula I, ATCC9027: 256 µg/mL

## Cc1ccccc1Oc1ccccc1-c1csc(N=C(N)N)n1 [Compound I-81]
[1]
  Synergistic activity (FIC value) ATCC13883: 0.09
[2]
  Synergistic activity (FIC value) ATCC19606: 0.31
[3]
  Synergistic activity (FIC value) ATCC25922: 0.14
[4]
  Synergistic activity (FIC value) ATCC9027: 0.06
[5]
  Antibacterial activity of the compound of Formula I, ATCC13883: 256 µg/mL
[6]
  Antibacterial activity of the compound of Formula I, ATCC19606: 256 µg/mL
[7]
  Antibacterial activity of the compound of Formula I, ATCC25922: 256 µg/mL
[8]
  Antibacterial activity of the compound of Formula I, ATCC9027: 256 µg/mL

## COc1ccc(Oc2ccccc2-c2csc(N=C(N)N)n2)c(C)c1 [Compound I-83]
[1]
  Synergistic activity (FIC value) ATCC13883: 0.09
[2]
  Synergistic activity (FIC value) ATCC19606: 0.63
[3]
  Synergistic activity (FIC value) ATCC25922: 0.27
[4]
  Synergistic activity (FIC value) ATCC9027: 0.04
[5]
  Antibacterial activity of the compound of Formula I, ATCC13883: 256 µg/mL
[6]
  Antibacterial activity of the compound of Formula I, ATCC19606: 256 µg/mL
[7]
  Antibacterial activity of the compound of Formula I, ATCC25922: 256 µg/mL
[8]
  Antibacterial activity of the compound of Formula I, ATCC9027: 256 µg/mL

## NC(N)=Nc1nc(-c2ccccc2Oc2ccccc2Cl)cs1 [Compound I-84]
[1]
  Synergistic activity (FIC value) ATCC13883: 0.09
[2]
  Synergistic activity (FIC value) ATCC19606: 0.63
[3]
  Synergistic activity (FIC value) ATCC25922: 0.27
[4]
  Synergistic activity (FIC value) ATCC9027: 0.04
[5]
  Antibacterial activity of the compound of Formula I, ATCC13883: 256 µg/mL
[6]
  Antibacterial activity of the compound of Formula I, ATCC19606: 256 µg/mL
[7]
  Antibacterial activity of the compound of Formula I, ATCC25922: 256 µg/mL
[8]
  Antibacterial activity of the compound of Formula I, ATCC9027: 256 µg/mL

## NC(N)=Nc1nc(-c2ccccc2Oc2ccc(Cl)cc2Cl)cs1 [Compound I-85]
[1]
  Synergistic activity (FIC value) ATCC13883: 0.19
[2]
  Synergistic activity (FIC value) ATCC19606: 0.04
[3]
  Synergistic activity (FIC value) ATCC25922: 0.26
[4]
  Synergistic activity (FIC value) ATCC9027: 0.52
[5]
  MIC: 256 µg/mL (≈ 675 µM)
[6]
  MIC: 256 µg/mL (≈ 675 µM)
[7]
  MIC: 256 µg/mL (≈ 675 µM)
[8]
  MIC: 256 µg/mL (≈ 675 µM)

## NC(N)=Nc1nc(-c2ccccc2Oc2ccccc2I)cs1 [Compound I-86]
[1]
  Synergistic activity (FIC value) ATCC13883: 0.19
[2]
  Synergistic activity (FIC value) ATCC19606: 0.38
[3]
  Synergistic activity (FIC value) ATCC25922: 0.04
[4]
  Synergistic activity (FIC value) ATCC9027: 0.04
[5]
  MIC: 256 µg/mL (≈ 587 µM)
[6]
  MIC: 256 µg/mL (≈ 587 µM)
[7]
  MIC: 256 µg/mL (≈ 587 µM)
[8]
  MIC: 256 µg/mL (≈ 587 µM)

## NC(N)=Nc1nc(-c2ccccc2Oc2ccc(I)cc2I)cs1 [Compound I-87]
[1]
  Synergistic activity (FIC value) ATCC13883: 0.16
[2]
  Synergistic activity (FIC value) ATCC19606: 0.03
[3]
  Synergistic activity (FIC value) ATCC25922: 0.18
[4]
  Synergistic activity (FIC value) ATCC9027: 0.28
[5]
  Antibacterial activity of the compound of Formula I, ATCC13883: 256 µg/mL
[6]
  Antibacterial activity of the compound of Formula I, ATCC19606: 256 µg/mL
[7]
  Antibacterial activity of the compound of Formula I, ATCC25922: 256 µg/mL
[8]
  Antibacterial activity of the compound of Formula I, ATCC9027: 256 µg/mL

## COc1ccc(Oc2ccccc2-c2csc(N=C(N)N)n2)c(OC)c1 [Compound I-88]
[1]
  Synergistic activity (FIC value) ATCC13883: 0.13
[2]
  Synergistic activity (FIC value) ATCC19606: 0.04
[3]
  Synergistic activity (FIC value) ATCC25922: 0.2
[4]
  Synergistic activity (FIC value) ATCC9027: 0.28
[5]
  Antibacterial activity of the compound of Formula I, ATCC13883: 256 µg/mL
[6]
  Antibacterial activity of the compound of Formula I, ATCC19606: 256 µg/mL
[7]
  Antibacterial activity of the compound of Formula I, ATCC25922: 256 µg/mL
[8]
  Antibacterial activity of the compound of Formula I, ATCC9027: 256 µg/mL
